Measurements published in ChEMBL document CHEMBL5550138, “Histidine-Covalent Stapled Alpha-Helical Peptides Targeting hMcl-1” (J Med Chem, 2024).
The source made the active and inactive calls. The rule behind the calls is not given here. Positions of bridges follow the written chain, without caps; N, C: chain ends. Non-standard residues stand in square brackets, D forms with d. Residues, ends and D or L forms follow the SMILES beside them. *: point of attachment. Benzoyl(2-OMe,5-SO2F) = COc1ccc(S(=O)(=O)F)cc1C(=O)*; S5 = C=CCCC[C@](C)(N)C(=O)O; Dap = NC[C@H](N)C(=O)O

Assays:
A549 [1] = assay: Induction of apoptosis in NucLight Red-labeled human A549 cells assessed as decrease in cell viability at 10 uM measured for 24 to 72 hrs by IncuCyte S3 live cell analysis; type: functional, cell-based; conditions: time 24-72 hrs
A549 [2] = assay: Potentiation of etoposide-induced apoptosis in NucLight Red-labeled human A549 cells assessed as decrease in cell viability at 10 uM measured for 24 to 72 hrs in presence of etoposide by IncuCyte S3 live cell analysis; type: functional, cell-based; conditions: time 24-72 hrs
[3] = target: T1, Induced myeloid leukemia cell differentiation protein Mcl-1 (Homo sapiens, UniProt Q07820); assay: Covalent binding affinity to N-terminal His6-tagged human Mcl-1 ligand binding domain (172 to 323 residues) expressed in Escherichia coli BL21(DE3) gold pLysS cells assessed as stable covalent adduct formation by measuring reaction half life at 100 uM incubated for 16 hrs by LC-MS analysis
T1 sequence (Q07820 whole entry, the tested form may be a part): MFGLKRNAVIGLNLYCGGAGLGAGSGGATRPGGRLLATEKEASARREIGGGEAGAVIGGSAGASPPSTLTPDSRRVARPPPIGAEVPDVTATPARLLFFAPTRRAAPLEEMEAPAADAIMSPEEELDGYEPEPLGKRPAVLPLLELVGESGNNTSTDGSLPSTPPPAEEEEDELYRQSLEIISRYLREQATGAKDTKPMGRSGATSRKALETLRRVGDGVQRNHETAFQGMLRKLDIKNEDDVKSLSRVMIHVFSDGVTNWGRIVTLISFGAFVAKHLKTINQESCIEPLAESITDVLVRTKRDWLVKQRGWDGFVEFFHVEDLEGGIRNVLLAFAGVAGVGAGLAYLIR

A549 [4] = assay: Induction of apoptosis in NucLight Red-labeled human A549 cells assessed as decrease in cell viability at 50 uM measured for 24 to 72 hrs by IncuCyte S3 live cell analysis; type: functional, cell-based; conditions: time 24-72 hrs
[5] = target: T1, Induced myeloid leukemia cell differentiation protein Mcl-1; assay: Covalent binding affinity to His residues of Mcl-1 in intact NucLight Red-labeled human A549 cells assessed as stable adduct formation by measuring band shift at 50 to 100 uM incubated for 12 hrs with treatment replenishment for every 3 hrs by western blot analysis; type: cell-based; conditions: dose 50-100 µM
[6] = target: T1, Induced myeloid leukemia cell differentiation protein Mcl-1; assay: Displacement of biotinylated BH3 peptide from N-terminal His6-tagged human Mcl-1 ligand binding domain (172 to 323 residues) expressed in Escherichia coli BL21(DE3) gold pLysS cells preincubated with protein for 2 hrs followed by incubation with BH3 peptide for 2 hrs by DELFIA assay
[7] = target: T1, Induced myeloid leukemia cell differentiation protein Mcl-1; assay: Covalent binding affinity to N-terminal His6-tagged human Mcl-1 ligand binding domain (172 to 323 residues) expressed in Escherichia coli BL21(DE3) gold pLysS cells assessed as stable covalent adduct formation by measuring reaction half life at 100 uM incubated for 16 hrs by SDS PAGE analysis
A549 [8] = assay: Induction of cell lysis in NucLight Red-labeled human A549 cells assessed as cell bursting at 100 uM measured after 20 mins by IncuCyte S3 live cell analysis based fluorescence microscopy; type: toxicity; conditions: a549, 20 min
Homo sapiens [9] = species on record: Homo sapiens; assay: Covalent binding affinity to N-terminal His6-tagged human Mcl-1 ligand binding domain (172 to 323 residues) Lys234Ala mutant expressed in Escherichia coli BL21(DE3) gold pLysS cells assessed as increase in mass of protein at 100 uM incubated for 16 hrs by LC-MS analysis
[10] = target: T1, Induced myeloid leukemia cell differentiation protein Mcl-1; assay: Covalent binding affinity to 15N-labeled human Mcl-1 ligand binding domain (172 to 323 residues) assessed as broadening of binding site His224 resonance at 250 uM in presence of BIM BH3 peptide by 2D[15N,1H]HMQC spectroscopy
[11] = target: T1, Induced myeloid leukemia cell differentiation protein Mcl-1; assay: Covalent binding affinity to 15N-labeled human Mcl-1 ligand binding domain (172 to 323 residues) assessed as His252 resonance at 250 uM in presence of BIM BH3 peptide by 2D[15N,1H]HMQC spectroscopy
[12] = target: T1, Induced myeloid leukemia cell differentiation protein Mcl-1; assay: Covalent binding affinity to His residues of Mcl-1 in NucLight Red-labeled human A549 cell lysates assessed as stable adduct formation by measuring band shift at 100 uM incubated for 3 hrs by western blot analysis; type: subcellular
[13] = target: T1, Induced myeloid leukemia cell differentiation protein Mcl-1; assay: (§1) Covalent binding affinity to N-terminal His6-tagged human Mcl-1 ligand binding domain (172 to 323 residues) expressed in Escherichia coli BL21(DE3) gold pLysS cells assessed as stable covalent adduct formation by measuring band shift at 100 uM incubated for 16 hrs by SDS PAGE analysis
[14] = target: T1, Induced myeloid leukemia cell differentiation protein Mcl-1; assay: Covalent binding affinity to N-terminal His6-tagged human Mcl-1 ligand binding domain (172 to 323 residues) expressed in Escherichia coli BL21(DE3) gold pLysS cells assessed as increase in mass of protein at 100 uM incubated for 16 hrs by LC-MS analysis
Homo sapiens [15] = species on record: Homo sapiens; assay: as §1, with “residues) Lys234Ala mutant” for “residues)”
[16] = target: T1, Induced myeloid leukemia cell differentiation protein Mcl-1; assay: (§2) Covalent binding affinity to His252 residue of N-terminal His6-tagged 13C(epsilon)-methionine-labeled human Mcl-1 ligand binding domain (172 to 323 residues) expressed in Escherichia coli BL21(DE3) gold pLysS cells assessed as chemical shift perturbations by measuring 13C/1H methyl resonances for binding site Met250 residue at 100 uM by 2D [1H,13C]-aliphatic NMR spectroscopy
[17] = target: T2, Bcl-2-related protein A1 (Homo sapiens) (UniProt Q16548); assay: Covalent binding affinity to N-terminal His6-tagged human Bfl-1 (1 to 149 residues) assessed as band shift at 100 uM incubated for 16 hrs by SDS PAGE analysis
T2 sequence (whole entry): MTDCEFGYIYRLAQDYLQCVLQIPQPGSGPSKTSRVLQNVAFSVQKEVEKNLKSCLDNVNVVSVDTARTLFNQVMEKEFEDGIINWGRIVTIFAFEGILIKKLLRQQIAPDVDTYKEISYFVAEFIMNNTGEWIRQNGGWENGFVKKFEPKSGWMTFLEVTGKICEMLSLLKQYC

[18] = target: T1, Induced myeloid leukemia cell differentiation protein Mcl-1; assay: as §2, with “1H” for “13C/1H”, “Thr259 and Ile181 residues” for “Met250 residue”, “1D 1H-aliphatic” for “2D [1H,13C]-aliphatic”
Homo sapiens [19] = species on record: Homo sapiens; assay: as §1, with “residues) His252Ala mutant” for “residues)”
[20] = target: T2, Bcl-2-related protein A1 (Homo sapiens); assay: Displacement of biotinylated BH3 peptide from N-terminal His6-tagged human Bfl-1 (1 to 149 residues) preincubated with protein for 2 hrs followed by incubation with BH3 peptide for 2 hrs by DELFIA assay; conditions: time 4.0 hrs
A549 [21] = assay: Potentiation of etoposide-induced apoptosis in NucLight Red-labeled human A549 cells assessed as decrease in cell viability at 50 uM measured for 24 to 72 hrs in presence of etoposide by IncuCyte S3 live cell analysis; type: functional, cell-based; conditions: time 24-72 hrs

For Cc1nn(C)c(COc2ccc(N3CCN(S(=O)(=O)N(C)C)CC3)cc2)c1-c1cccc2c(CCCOc3cccc4ccccc34)c(C(=O)O)n(CCN3CCOCC3)c12, the Activity (A549 [1]) was “inactive” and the Activity (A549 [2]) was “Active”.
For CC[C@H](C)[C@H](NC(=O)[C@H](CNC(=O)c1cc(S(=O)(=O)F)ccc1OC)NC(C)=O)C(=O)N[C@@H](C)C(=O)N[C@@H](CCC(=O)O)C(=O)N[C@@H](CCC(N)=O)C(=O)N[C@@H](CC(C)C)C(=O)N[C@@H](CCCNC(=N)N)C(=O)N[C@@]1(C)CCC/C=C\CCC[C@@](C)(C(=O)N[C@@H](Cc2ccccc2)C(N)=O)NC(=O)[C@H](CC(=O)O)NC(=O)CNC(=O)[C@H]([C@@H](C)CC)NC1=O (Ac-[Dap](Benzoyl(2-OMe,5-SO2F))IAEQLR[S5]IGD[S5]F-NH2; staple (Z) 8-12), the T1/2 [3] was 6 h, the Activity (A549 [4]) was “inactive” and the Activity [5] was “Active”. For the same molecule, the IC50 [6] was 18 nM, the T1/2 [7] was 6 h and the Activity (A549 [8]) was “Non-Toxic”. For the same molecule, the Activity (Homo sapiens [9]) was 1740 Da, the Activity [10] was “Active” and the Activity [11] was “Active”. The Activity [12] was “Active”, the Activity [13] was “Active” and the Activity [14] was 1740 Da. For the same molecule, the Activity (Homo sapiens [15]) was “Active”, the Activity [16] was “Active” and the Activity [17] was “inactive”. The Activity [18] was “Active”, the Activity (Homo sapiens [19]) was “Active” and the Activity [20] was “inactive”. For the same molecule, the Activity (A549 [21]) was “Active”.
